Reference: patent US20240425490A1, “SULFAMIDE RIBONUCLEOTIDE REDUCTASE (RNR) INHIBITORS AND USES THEREOF” (Boundless Bio, Inc., priority 2021, published 2024)

Biological target: T1, RNR (RNR1:RNR2 1:1) (Homo sapiens, UniProt P23921)
T1 sequence (P23921 1-792): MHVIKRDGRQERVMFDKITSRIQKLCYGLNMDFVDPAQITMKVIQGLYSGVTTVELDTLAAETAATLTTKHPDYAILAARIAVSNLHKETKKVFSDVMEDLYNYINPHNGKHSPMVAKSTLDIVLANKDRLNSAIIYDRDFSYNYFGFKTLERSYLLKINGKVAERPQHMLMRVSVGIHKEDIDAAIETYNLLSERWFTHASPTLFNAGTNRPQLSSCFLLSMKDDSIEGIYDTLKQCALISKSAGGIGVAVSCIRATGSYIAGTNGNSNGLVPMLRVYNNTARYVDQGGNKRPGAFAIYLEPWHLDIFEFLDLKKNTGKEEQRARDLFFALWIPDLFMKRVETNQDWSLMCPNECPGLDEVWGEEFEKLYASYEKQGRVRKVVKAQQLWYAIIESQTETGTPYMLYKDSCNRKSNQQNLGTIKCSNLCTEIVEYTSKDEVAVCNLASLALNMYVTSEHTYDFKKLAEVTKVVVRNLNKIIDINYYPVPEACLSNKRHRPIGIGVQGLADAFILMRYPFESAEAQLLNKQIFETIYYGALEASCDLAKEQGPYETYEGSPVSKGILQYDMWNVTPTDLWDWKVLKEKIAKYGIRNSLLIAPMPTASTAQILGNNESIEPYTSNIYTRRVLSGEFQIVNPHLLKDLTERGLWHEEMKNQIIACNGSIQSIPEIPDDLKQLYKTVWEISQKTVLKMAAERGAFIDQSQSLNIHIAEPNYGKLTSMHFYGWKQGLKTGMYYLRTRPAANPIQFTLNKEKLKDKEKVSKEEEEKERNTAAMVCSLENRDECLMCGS
Assay: RNR enzyme activity, rapid-fire mass spectrometry (RFMS) assay
Type: biochemical
Details: RNR 50 nM, CDP 5 μM, ATP 1 mM, 37° C., 45 min, compounds screened up to 50 μM, read-out: RF/MS IC50
Method: A rapid-fire mass spectrometry (RFMS) assay was used to assess RNR enzyme activity using a 384 well plate and a robotic platform.
The plate layout included two validated reference compounds (Triapine (3-AP) and Hydroxyurea (HU)): • A dose response in duplicate; top concentration: 5 μM (3-AP) and 250 μM (HU), semi-log dilutions. • Spike wells in triplicate randomly spotted at four concentrations: • 250 μM, 100 μM, 30 μM and 2 μM for HU • 5 μM, 2 μM, 0.6 μM and 0.04 μM for 3-AP
First, the multidrop pipes were saturated for 30 minutes with enzymatic solution. Then 30 μL of Stop solution was distributed in column 24. Next, 15 μL of enzyme was distributed in column 1 to 24. Next, a pre-incubation step of 15 minutes at room temperature occurred, followed by distribution of 15 μL of substrate solution (column 1 to 24). Next, the plate was incubated for 45 minutes at 37° C. 30 μL of Stop solution was distributed to columns 1 to 23.
The final parameters for the enzyme reactions were: • Incubation: 37° C., 45 min • [CDP]: 5 μM; [ATP]: 1 mM; [NADPH]: No • [RNR] final: 50 nM with 1:1 (RNR1:RNR2) ratio • Final volume: 30 μL • Stop solution: 6% HCOOH containing 2 μM of 15

Row | Compound | IC50 [µM]
1 | Cc1ccc(F)c(C(C)[C@H](NS(=O)(=O)N2CCC(C3CC3)CC2)c2n[nH]c(=O)o2)c1C (stereo partly drawn) [Example 49, 4-cyclopropyl-N-((1S)-2-(6-fluoro-2,3-dimethylphenyl)-1-(5-oxo-4,5-dihydro-1,3,4-oxadiazol-2-yl)propyl)piperidine-1-sulfonamide] | 1 to 10
2 | Cc1ccc(F)c([C@@H](C)[C@H](NS(=O)(=O)N2CCC(C(C)C)CC2)c2n[nH]c(=O)o2)c1C [Example 38, N-((1S,2R)-2-(6-fluoro-2,3-dimethylphenyl)-1-(5-oxo-4,5-dihydro-1,3,4-oxadiazol-2-yl)propyl)-4-isopropylpiperidine-1-sulfonamide] | 10 to 100
3 | Cc1ccc(F)c([C@H](C)[C@H](NS(=O)(=O)N2CC3CCCC(C3)C2)c2n[nH]c(=O)o2)c1C [Example 42, N-((1S,2S)-2-(6-fluoro-2,3-dimethylphenyl)-1-(5-oxo-4,5-dihydro-1,3,4-oxadiazol-2-yl)propyl)-3-azabicyclo[3.3.1]nonane-3-sulfonamide] | 10 to 100
4 | Cc1ccc(F)c(C(C)[C@H](NS(=O)(=O)N2CCC(CN3CCCC3=O)CC2)c2n[nH]c(=O)o2)c1C (stereo partly drawn) [Example 65, N-((1S)-2-(6-fluoro-2,3-dimethylphenyl)-1-(5-oxo-4,5-dihydro-1,3,4-oxadiazol-2-yl)propyl)-4-((2-oxopyrrolidin-1-yl)methyl)piperidine-1-sulfonamide] | 0.1 to 1
5 | Cc1ccc(F)c([C@@H](C)[C@H](NS(=O)(=O)N2CCC(c3c[nH]c4ccccc34)CC2)c2n[nH]c(=O)o2)c1C [Example 68, N-((1S,2R)-2-(6-fluoro-2,3-dimethylphenyl)-1-(5-oxo-4,5-dihydro-1,3,4-oxadiazol-2-yl)propyl)-4-(1H-indol-3-yl)piperidine-1-sulfonamide] | 1 to 10
6 | CC(=O)[C@@H]1CCCCN1S(=O)(=O)N[C@H](c1n[nH]c(=O)o1)[C@H](C)c1c(F)ccc(C)c1C [Example 17, (S)-2-acetyl-N-((1S,2R)-2-(6-fluoro-2,3-dimethylphenyl)-1-(5-oxo-4,5-dihydro-1,3,4-oxadiazol-2-yl)propyl)piperidine-1-sulfonamide] | 10 to 100

Now from value to compound:

Row | IC50 [µM] | Compound
7 | 0.1 to 1 | Cc1ccc(F)c(C(C)[C@H](NS(=O)(=O)N2CCN(C)CC2)c2n[nH]c(=O)o2)c1C (stereo partly drawn) [Example 139, N-((1S)-2-(6-fluoro-2,3-dimethylphenyl)-1-(5-oxo-4,5-dihydro-1,3,4-oxadiazol-2-yl)propyl)-4-methylpiperazine-1-sulfonamide]
8 | 0.1 to 1 | Cc1ccc(F)c([C@@H](C)[C@H](NS(=O)(=O)N2CCC3(CC2)CC(=O)N(C)C3)c2n[nH]c(=O)o2)c1C [Example 76, N-((1S,2R)-2-(6-fluoro-2,3-dimethylphenyl)-1-(5-oxo-4,5-dihydro-1,3,4-oxadiazol-2-yl)propyl)-2-methyl-3-oxo-2,8-diazaspiro[4.5]decane-8-sulfonamide]
9 | 1 to 10 | Cc1ccc(F)c([C@H](C)[C@H](NS(=O)(=O)N2CCC3(CCCCC3)CC2)c2n[nH]c(=O)o2)c1C [Example 88, N-((1S,2S)-2-(6-fluoro-2,3-dimethylphenyl)-1-(5-oxo-4,5-dihydro-1,3,4-oxadiazol-2-yl)propyl)-3-azaspiro[5.5]undecane-3-sulfonamide]
10 | 1 to 10 | Cc1ccc(F)c([C@H](C)[C@H](NS(=O)(=O)N2CCC(C)CC2)c2n[nH]c(=O)o2)c1C [Example 116, N-((1S,2S)-2-(6-fluoro-2,3-dimethylphenyl)-1-(5-oxo-4,5-dihydro-1,3,4-oxadiazol-2-yl)propyl)-4-methylpiperidine-1-sulfonamide]
11 | 1 to 10 | Cc1ccc(F)c([C@H](C)[C@H](NS(=O)(=O)N2CCC[C@](C)(O)C2)c2n[nH]c(=O)o2)c1C [Example 21, (S)-N-((1S,2S)-2-(6-fluoro-2,3-dimethylphenyl)-1-(5-oxo-4,5-dihydro-1,3,4-oxadiazol-2-yl)propyl)-3-hydroxy-3-methylpiperidine-1-sulfonamide]
